Test results from US20260217765A1, “NOVEL ANTIMICROBIAL PEPTIDE DESIGNED FROM DUCK-DERIVED ANTIMICROBIAL PEPTIDE ANDUSE THEREOF” (INDUSTRY-ACADEMIC COOPERATION FOUNDATION, CHOSUN UNIVERSITY, priority 2023, published 2026).
Peptide text beside a SMILES is read from it.

Experiments:
[1] = test system: Acinetobacter baumannii_isolate 4 (antibiotic-resistant); format: cell-based, Acinetobacter baumannii; settings: isolate 4 (antibiotic-resistant)
From the text: (§1) To compare the antimicrobial activity of the peptides prepared in <Example 1>, the minimum inhibitory concentration (MIC), […] measured. Here, the minimal inhibitory concentration (MIC) refers to the lowest concentration of a substance that prevents visible bacterial growth.
(§2) Specifically, the bacterial strains listed in Table 2 below were obtained and cultured in media suitable for each strain until the mid-log phase. The cultures were then diluted to a concentration of 2×10^4 cells/100 μL and prepared in microtiter plates (Nunc, USA). Subsequently, serial 2-fold dilutions of the peptides prepared in Example 1 were prepared, and 10 μL of each dilution was added to the wells, and the plates were incubated at 37° C. for 18 hours. Absorbance at 600 nm was measured using a microtiter plate reader (Merck ELISA reader, Germany) to determine the MIC values for each bacterial strain. The parent peptide dCATH was used as a control.

[2] = test system: Acinetobacter baumannii_isolate 17 (antibiotic-resistant); format: cell-based, Acinetobacter baumannii; settings: isolate 17 (antibiotic-resistant)
From the text: as §1, §2

[3] = test system: Acinetobacter baumannii_isolate 13 (antibiotic-resistant); format: cell-based, Acinetobacter baumannii; settings: isolate 13 (antibiotic-resistant)
From the text: as §1, §2

[4] = test system: Acinetobacter baumannii_isolate21 (antibiotic-resistant); format: cell-based, Acinetobacter baumannii; settings: isolate21 (antibiotic-resistant)
From the text: as §1, §2

[5] = test system: Acinetobacter baumannii_isolate 9 (antibiotic-resistant); format: cell-based, Acinetobacter baumannii; settings: isolate 9 (antibiotic-resistant)
From the text: as §1, §2

[6] = test system: Acinetobacter baumannii_isolate 22 (antibiotic-resistant); format: cell-based, Acinetobacter baumannii; settings: isolate 22 (antibiotic-resistant)
From the text: as §1, §2

[7] = test system: Acinetobacter baumannii_isolate 23 (antibiotic-resistant); format: cell-based, Acinetobacter baumannii; settings: isolate 23 (antibiotic-resistant)
From the text: as §1, §2

[8] = test system: Acinetobacter baumannii_isolate 14 (antibiotic-resistant); format: cell-based, Acinetobacter baumannii; settings: isolate 14 (antibiotic-resistant)
From the text: as §1, §2

[9] = test system: Acinetobacter baumannii_isolate 1 (antibiotic-resistant); format: cell-based, Acinetobacter baumannii; settings: isolate 1 (antibiotic-resistant)
From the text: as §1, §2

[10] = test system: Acinetobacter baumannii_isolate 5 (antibiotic-resistant); format: cell-based, Acinetobacter baumannii; settings: isolate 5 (antibiotic-resistant)
From the text: as §1, §2

[11] = test system: Acinetobacter baumannii_isolate 2 (antibiotic-resistant); format: cell-based, Acinetobacter baumannii; settings: isolate 2 (antibiotic-resistant)
From the text: as §1, §2

[12] = test system: Acinetobacter baumannii_isolate 19 (antibiotic-resistant); format: cell-based, Acinetobacter baumannii; settings: isolate 19 (antibiotic-resistant)
From the text: as §1, §2

[13] = test system: Acinetobacter baumannii_isolate 10 (antibiotic-resistant); format: cell-based, Acinetobacter baumannii; settings: isolate 10 (antibiotic-resistant)
From the text: as §1, §2

[14] = test system: Acinetobacter baumannii_isolate 12 (antibiotic-resistant); format: cell-based, Acinetobacter baumannii; settings: isolate 12 (antibiotic-resistant)
From the text: as §1, §2

[15] = test system: Acinetobacter baumannii_isolate 26 (antibiotic-resistant); format: cell-based, Acinetobacter baumannii; settings: isolate 26 (antibiotic-resistant)
From the text: as §1, §2

[16] = test system: Acinetobacter baumannii_isolate 6 (antibiotic-resistant); format: cell-based, Acinetobacter baumannii; settings: isolate 6 (antibiotic-resistant)
From the text: as §1, §2

[17] = test system: Acinetobacter baumannii_isolate 24 (antibiotic-resistant); format: cell-based, Acinetobacter baumannii; settings: isolate 24 (antibiotic-resistant)
From the text: as §1, §2

[18] = test system: Acinetobacter baumannii_isolate 7 (antibiotic-resistant); format: cell-based, Acinetobacter baumannii; settings: isolate 7 (antibiotic-resistant)
From the text: as §1, §2

[19] = test system: Acinetobacter baumannii_isolate 3 (antibiotic-resistant); format: cell-based, Acinetobacter baumannii; settings: isolate 3 (antibiotic-resistant)
From the text: as §1, §2

[20] = test system: Acinetobacter baumannii_isolate 8 (antibiotic-resistant); format: cell-based, Acinetobacter baumannii; settings: isolate 8 (antibiotic-resistant)
From the text: as §1, §2

[21] = test system: Acinetobacter baumannii_isolate15 (antibiotic-resistant); format: cell-based, Acinetobacter baumannii; settings: isolate15 (antibiotic-resistant)
From the text: as §1, §2

[22] = test system: Acinetobacter baumannii_isolate 18 (antibiotic-resistant); format: cell-based, Acinetobacter baumannii; settings: isolate 18 (antibiotic-resistant)
From the text: as §1, §2

[23] = test system: Acinetobacter baumannii_isolate 25 (antibiotic-resistant); format: cell-based, Acinetobacter baumannii; settings: isolate 25 (antibiotic-resistant)
From the text: as §1, §2

[24] = test system: Acinetobacter baumannii_isolate11 (antibiotic-resistant); format: cell-based, Acinetobacter baumannii; settings: isolate11 (antibiotic-resistant)
From the text: as §1, §2

[25] = test system: Acinetobacter baumannii_isolate16 (antibiotic-resistant); format: cell-based, Acinetobacter baumannii; settings: isolate16 (antibiotic-resistant)
From the text: as §1, §2

[26] = test system: Acinetobacter baumannii_isolate20 (antibiotic-resistant); format: cell-based, Acinetobacter baumannii; settings: isolate20 (antibiotic-resistant)
From the text: as §1, §2

[27] = test system: Acinetobacter baumannii KCTC 2508; format: cell-based; settings: KCTC 2508, 24 h
Experimental: Specifically, among the bacterial strains listed in Table 2, those known to form biofilms well (Acinetobacter baumannii KCTC 2508, Acinetobacter baumannii isolate 10, and isolate 14) were cultured in the appropriate media to the mid-log phase and diluted to a cell concentration of 5×10^4 cells/100 µL, followed by inoculation into microplates (SPL). Subsequently, the peptides prepared in <Example 1> were serially 10-fold diluted with 10 mM sodium phosphate buffer (pH 7.2), and 10 μL of each dilution was added to each well. The plates were then incubated at 37° C. for 24 hours. After completely removing the supernatant, the plates were fixed with 100% methanol for 15 minutes, stained with crystal violet staining solution for 1 hour, washed three times, and then the stain was solubilized with 95% ethanol. Absorbance was measured at 595 nm using a microplate reader to determine the MBIC values for each bacterial strain.

CC[C@H](C)[C@H](NC(=O)[C@H](C)NC(=O)[C@H](CC(C)C)NC(=O)[C@@H]1CCCN1C(=O)[C@@H](NC(=O)[C@H](CC(C)C)NC(=O)[C@H](CCC(N)=O)NC(=O)[C@H](Cc1c[nH]c2ccccc12)NC(=O)[C@H](Cc1ccccc1)NC(=O)[C@H](CCCNC(=N)N)NC(=O)[C@@H](N)CCCCN)C(C)C)C(=O)N[C@@H](CCCCN)C(=O)N[C@H](C(=O)N[C@@H](Cc1ccc(O)cc1)C(=O)N[C@@H](CCCNC(=N)N)C(=O)N[C@@H](C)C(=O)N[C@@H](Cc1c[nH]c2ccccc12)C(=O)N[C@@H](CCCCN)C(=O)N[C@@H](CCCNC(=N)N)C(=O)N[C@@H](CCCNC(=N)N)C(N)=O)[C@@H](C)CC [dCATH, reference compound] (H-KRFWQLVPLAIKIYRAWKRR-NH2; N-terminus assumed)
2 µM: MIC [1] | MIC [2] | MIC [3] | MIC [4] | MIC [5] | MIC [6] | MIC [7] | MIC [8] | MIC [9] | MIC [10] | MIC [11] | MIC [12] | MIC [13] | MIC [14] | MIC [15] | MIC [19] | MIC [20] | MIC [21] | MIC [22] | MIC [23] | MIC [24] | MIC [25] | MIC [26]
4 µM: MIC [16] | MIC [17] | MIC [18] | MBIC [27]

CC[C@H](C)[C@H](NC(=O)[C@H](C)NC(=O)[C@H](CC(C)C)NC(=O)[C@@H]1CCCN1C(=O)[C@@H](NC(=O)[C@H](CC(C)C)NC(=O)[C@H](CCC(N)=O)NC(=O)[C@H](C)NC(=O)[C@H](Cc1ccccc1)NC(=O)[C@H](CCCNC(=N)N)NC(=O)[C@@H](N)CCCCN)C(C)C)C(=O)N[C@@H](CCCCN)C(=O)N[C@H](C(=O)N[C@@H](Cc1ccc(O)cc1)C(=O)N[C@@H](CCCNC(=N)N)C(=O)N[C@@H](C)C(=O)N[C@@H](Cc1c[nH]c2ccccc12)C(=O)N[C@@H](CCCCN)C(=O)N[C@@H](CCCNC(=N)N)C(=O)N[C@@H](CCCNC(=N)N)C(N)=O)[C@@H](C)CC [dCATH-A2] (H-KRFAQLVPLAIKIYRAWKRR-NH2; N-terminus assumed)
1 µM: MIC [2] | MIC [3] | MIC [4] | MIC [6] | MIC [7] | MIC [8] | MIC [10] | MIC [11] | MIC [12] | MIC [14] | MIC [17] | MIC [18] | MIC [19] | MIC [20] | MIC [21] | MIC [22] | MIC [23] | MIC [24] | MIC [25] | MIC [26]
4 µM: MBIC [27]
2 µM: MIC [1] | MIC [5] | MIC [9] | MIC [13] | MIC [15] | MIC [16]

CC[C@H](C)[C@H](NC(=O)[C@H](C)NC(=O)[C@H](CC(C)C)NC(=O)[C@@H]1CCCN1C(=O)[C@@H](NC(=O)[C@H](CC(C)C)NC(=O)[C@H](CCC(N)=O)NC(=O)[C@H](Cc1c[nH]c2ccccc12)NC(=O)[C@H](C)NC(=O)[C@H](CCCNC(=N)N)NC(=O)[C@@H](N)CCCCN)C(C)C)C(=O)N[C@@H](CCCCN)C(=O)N[C@H](C(=O)N[C@@H](Cc1ccc(O)cc1)C(=O)N[C@@H](CCCNC(=N)N)C(=O)N[C@@H](C)C(=O)N[C@@H](Cc1c[nH]c2ccccc12)C(=O)N[C@@H](CCCCN)C(=O)N[C@@H](CCCNC(=N)N)C(=O)N[C@@H](CCCNC(=N)N)C(N)=O)[C@@H](C)CC [dCATH-A1] (H-KRAWQLVPLAIKIYRAWKRR-NH2; N-terminus assumed)
1 µM: MIC [2] | MIC [7] | MIC [12] | MIC [26]
2 µM: MIC [1] | MIC [3] | MIC [4] | MIC [5] | MIC [6] | MIC [8] | MIC [9] | MIC [10] | MIC [11] | MIC [13] | MIC [14] | MIC [15] | MIC [16] | MIC [17] | MIC [18] | MIC [19] | MIC [20] | MIC [21] | MIC [22] | MIC [23] | MIC [24] | MIC [25]
4 µM: MBIC [27]
